SMILES strings stand for the structures.

The target in assay [1] is T1, S. aureus RnpA (Staphylococcus aureus, UniProt P0A0H5).
T1 construct: hexahistidine (His6) (N); made in house; host or cells: E. coli BL21 (DE3), plasmid pEXP5-nt
T1 sequence (P0A0H5 1-117): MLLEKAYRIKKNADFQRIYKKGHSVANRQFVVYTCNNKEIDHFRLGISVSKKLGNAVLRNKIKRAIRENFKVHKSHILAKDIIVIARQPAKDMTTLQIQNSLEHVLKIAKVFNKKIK
In words: RnpA-mediated in vitro spa mRNA degradation assay. The format is biochemical. As to conditions: read-out: Degradation IC50. The protocol:
RnpA-mediated RNA degradation assays were performed as previously described. Briefly, 1 pmol of spa mRNA was incubated with 5 pmol RnpA at 37 °C for 30 min in reaction buffer (50 mM Tris-HCl pH 8.0, 2 mM NaCl, 2 mM MgCl2) in the absence or presence of the indicated compound (≤500 µM). The inhibitory effects of the test compounds were calculated using Biorad ImageLab densitometry software to measure the signal intensity of the spa band in the negative control (spa alone), positive control (RnpA + spa + DMSO), and experimental samples (RnpA + spa + test compound) separated on a 1.2% formaldehyde-agarose gel. Background signal from the positive control sample sometimes resulted due to incomplete degradation of transcripts. Thus, the signal intensity of the positive control was taken into account when calculating the percent inhibition. The raw signals from the positive (+RnpA) and negative (-RnpA) controls were converted into percentage, by normalizing the positive control (+RnpA) signal to 0% RnpA inhibition and the negative control (-RnpA) to 100% RnpA inhibition. Similarly, the raw signals from the test compounds were reported as percent RnpA inhibition using the following equation: [(experimental−positive control)/(negative control−positive control)] × 100. […] To assess IC50, % RnpA degradation inhibition was plotted against compound concentration; a linear best fit equation was generated and utilized to calculate the IC50.

The subject of assay [2] is all cellular mRNA species of S. aureus UAMS-1. Nature of the assay: Global cellular mRNA turnover (Affymetrix GeneChip). The format is cell-based, Staphylococcus aureus. As to conditions: 0.5× MIC; mock (DMSO) 84.8%. The method, then:
S. aureus mRNA half-life determinations were performed as previously described. […] Rifampin (Sigma-Aldrich) was added to the culture at a final concentration of 200 μg·mL^−1 to inhibit de novo transcript synthesis. Half of the culture was immediately removed and combined with an equal volume of ice cold acetone:ethanol (1:1 v/v). The remaining culture was returned to the shaking 37 °C incubator for an additional 5 min and then subsequently combined with an equal volume of ice cold acetone:ethanol (1:1 v/v) and stored at −80 °C until processing, as described below.
Briefly, following the manufacturer’s instructions for prokaryotic arrays, reverse transcription was carried out on 10 µg of total bacterial RNA and control eukaryotic poly(A) RNA (Affymetrix). […] Transcript signal intensity values were read using the Affymetrix GeneChip® Scanner, and intensity values for each ORF and intergenic region were averaged among the biological replicates (n ≥ 2). Signals were normalized to the control poly(A) cDNA intensity values using GeneSpring 7.2 software (Agilent Technologies, Redwood City, CA, USA) and the number of transcripts with a decrease in transcript signal of >2-fold were determined.

Consider `CC1CCCCN1C(=O)Nc1cc(Cl)cc(Cl)c1` (centres unmarked) [JC2], for which, in assay [1], the IC50 is 180 µM. Moreover, the “transcript species with a half-life of ≤5 min” value in assay [2] came out at 51.6%.

The values are drawn from PMC6627331, “Identification of Small Molecule Inhibitors of Staphylococcus aureus RnpA” (Antibiotics, 2019).
